Laboratory results from PubChem BioAssay (NCI).
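Exposure lasted 48 hours, with cells grown in 96-well plates and compounds tested at five concentrations. GI50: concentration for 50% inhibition of growth. TGI marks complete inhibition of growth.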

Columns and labels:
Test in all cases: inhibition of tumour cell growth, NCI panel, 48 h
U251 CNS = test system: U251 CNS
786-0 renal = test system: 786-0 renal
BT-549 breast = test system: BT-549 breast
TK-10 renal = test system: TK-10 renal
OVCAR-5 ovarian = test system: OVCAR-5 ovarian
MOLT-4 leukemia = test system: MOLT-4 leukemia
CCRF-CEM leukemia = test system: CCRF-CEM leukemia
HL-60(TB) leukemia = test system: HL-60(TB) leukemia

Row | Compound | TGI (U251 CNS) | TGI (786-0 renal) | TGI (BT-549 breast) | TGI (TK-10 renal) | TGI (OVCAR-5 ovarian) | TGI (MOLT-4 leukemia) | TGI (CCRF-CEM leukemia) | TGI (HL-60(TB) leukemia) | GI50 (U251 CNS) | GI50 (786-0 renal) | GI50 (BT-549 breast) | GI50 (OVCAR-5 ovarian) | GI50 (MOLT-4 leukemia) | GI50 (CCRF-CEM leukemia) | GI50 (HL-60(TB) leukemia) | GI50 (TK-10 renal)
1 | CC(=O)Nc1ccc(C(=O)N[C@@H]2C(=O)N3[C@@H]2SC(C)(C)[C@@H]3C(=O)O)cn1 | > 100 µM | > 100 µM | > 100 µM | > 100 µM | > 100 µM | > 100 µM | > 100 µM | > 100 µM |  |  |  |  |  |  |  | 
2 | NC(=O)NC(=O)CI | 29.3 µM | 13.5 µM | 11.3 µM |  | 26.1 µM | 4.13 µM | 2.31 µM | 4.02 µM | 15.3 µM | 4.7 µM | 4.28 µM | 11.3 µM | 1.74 µM | 0.757 µM | 1.94 µM | 
3 | Cc1ccc(/C=C2\CCOC2=O)cc1 | > 100 µM | > 100 µM | > 100 µM | > 100 µM | > 100 µM | > 100 µM | > 100 µM | > 100 µM | > 100 µM | > 100 µM | > 100 µM | > 100 µM | > 100 µM | > 100 µM | > 100 µM | > 100 µM
4 | O=Cc1ccc(C(F)(F)F)cc1.[C-]#[O+].[C-]#[O+].[C-]#[O+].[Cr] | > 100 µM | 44.1 µM | > 100 µM | > 100 µM | > 100 µM | 68 µM | 65.1 µM | 92.6 µM | 26.8 µM | 13.1 µM | 40.1 µM | 53.9 µM | 15.4 µM | 9.87 µM | 16.1 µM | 25.9 µM
5 | Cc1c2c(nn1-c1ccc(S/N=C3\SCC(=O)CN3c3ccccc3)cc1)-c1ccccc1CC2 | > 50 µM | > 50 µM | 34.5 µM | > 50 µM | > 50 µM | > 50 µM | > 50 µM | > 50 µM | 21.1 µM | 13.3 µM | 11.1 µM | > 50 µM | 19.6 µM | 28.1 µM | > 50 µM | > 50 µM
6 | O=Nc1c(-c2cccc([N+](=O)[O-])c2)nc2ncccn12 | 32.5 µM | 54.7 µM | 32.1 µM | 30.2 µM | 39.1 µM | 5.31 µM | 4.44 µM | 6.15 µM | 13.9 µM | 17.6 µM | 15.8 µM | 18.5 µM | 1.79 µM | 1.86 µM | 2.32 µM | 11 µM
7 | O=c1c2ccccc2nc(-c2ccc(Cl)cc2)n1O | > 100 µM | 94.4 µM | > 100 µM | 88 µM | > 100 µM | > 100 µM | 59.8 µM | 65 µM |  |  |  |  |  |  |  | 
8 | O=C1NC(=NCCc2ccccc2Cl)S/C1=C\c1ccc2ncccc2c1 | > 21.4 µM | > 25 µM | > 22 µM | > 20.1 µM | > 25 µM | 17.2 µM | > 25 µM | 10.3 µM | 2.64 µM | 7.66 µM | 4.94 µM | 12.2 µM | 5.4 µM | 4.09 µM | 2.63 µM | 3.79 µM
9 | NCCOc1ccccn1 | > 100 µM | > 100 µM | > 100 µM | > 100 µM | > 100 µM | > 100 µM | > 100 µM | > 100 µM |  |  |  |  |  |  |  | 
10 | O=C(NC(=S)NS(=O)(=O)c1ccc(N2N=C3c4ccccc4CC3C2c2cccs2)cc1)c1ccccc1 (stereo not given) | 82.3 µM | > 100 µM | > 100 µM |  | 71.7 µM | 69.9 µM | > 100 µM |  | 20.1 µM | 27.9 µM | 21.6 µM | 18.7 µM | 26.2 µM | 27.9 µM |  | 
11 | COc1ccc2c(CNCCCCO)cc3cc4c(cc3c2c1)OCO4 | 7.29 µM | > 32.2 µM | 11.9 µM | 9.98 µM | 8.95 µM | 3.94 µM | 10.9 µM |  | 1.85 µM | 1.63 µM | 3.83 µM | 2.72 µM | 0.263 µM | 0.777 µM |  | 1.85 µM
12 | Cn1c(=O)c(Cc2ccc(F)cc2F)cc2cnc(NC3CCOCC3)nc21 | > 25 µM | > 25 µM | > 25 µM | > 25 µM | > 25 µM | > 25 µM | > 25 µM | > 25 µM | > 25 µM | > 25 µM | > 16.6 µM | > 25 µM | > 21.2 µM | > 25 µM | > 25 µM | 14.5 µM
13 | CN(C)/[N+]([O-])=N/Oc1cc(Nc2ccc(C(=O)O)cc2)c([N+](=O)[O-])cc1[N+](=O)[O-] | 33.5 µM | 55.3 µM | 34.6 µM | 72.7 µM | > 100 µM | > 100 µM |  | 58.8 µM | 19.3 µM | 22.2 µM | 18.5 µM | 38.5 µM | 53.3 µM |  | 18.5 µM | 18.9 µM
14 | Cn1c2ccccc2c2c3c(c4c5ccccc5n(CCCCCC#N)c4c21)C(=O)N(O)C3=O | 1.51 µM | 3.81 µM | 88.7 µM | 40 µM | 8.04 µM |  | > 100 µM | 1.81 µM | 0.33 µM | 1.59 µM | 2.5 µM | 2.43 µM |  | 0.374 µM | 0.381 µM | 3.94 µM
15 | Cc1cc(S(N)(=O)=O)c(S/C(=N\NS(=O)(=O)c2ccc(Cl)cc2)c2ccc(Cl)cc2)cc1Cl | > 100 µM | > 100 µM | > 100 µM | > 100 µM | > 100 µM | > 100 µM | > 100 µM | > 100 µM | 62.8 µM | > 100 µM | > 100 µM | > 100 µM | 8.12 µM | 61 µM | 40.6 µM | > 100 µM
16 | COc1ccc(Cc2ccccc2C(=O)O)c2ccccc12 | 89.3 µM | > 100 µM | > 100 µM | 50.2 µM | 59.6 µM |  | 95.3 µM | 46 µM |  |  |  |  |  |  |  | 
17 | NS(=O)(=O)c1ccc(-n2nc(-c3ccc(Cl)cc3)cc2C2=CC(=O)C=CC2=O)cc1 |  | 36 µM | 70.8 µM | 28.3 µM | 46.1 µM | > 100 µM | > 100 µM | > 100 µM |  | 19.8 µM | 22.5 µM | 19.5 µM | > 100 µM | 3.57 µM | 34 µM | 12.5 µM
18 | CCN1C(=O)N(c2c(F)c(OC)cc(OC)c2F)Cc2cnc3[nH]c(CN4CCOCC4)cc3c21 | > 100 µM | 30.1 µM | 15.7 µM |  | > 100 µM | 59.9 µM | > 100 µM | > 100 µM | 2.75 µM | 2.84 µM | 0.0491 µM | 9.23 µM | 2.56 µM | 2.13 µM | 3.05 µM | 
19 | O=[N+]([O-])c1ccc2[nH]cc(-c3c4ccccc4cc4[nH]c5ccc([N+](=O)[O-])cc5c34)c2c1 | 8.41 µM | 4.09 µM | 5.94 µM | 6.79 µM | 5.94 µM | 6.55 µM | 6.71 µM |  | 2.81 µM | 1.94 µM | 2.29 µM | 2.21 µM | 2.45 µM | 2.38 µM |  | 2.59 µM
20 | O=C1c2cccnc2-c2nc(-c3ccc([N+](=O)[O-])cc3)cc3c2c1nc1ccccc13 | > 100 µM | 40.1 µM | 28.6 µM | 24.9 µM | 27.5 µM | > 100 µM |  |  | 3.44 µM | 10.4 µM | 10.4 µM | 12.5 µM | 53.5 µM |  |  | 8.41 µM
21 | COc1cc(/C=C/C(=O)c2ccc(Nc3nc(Nc4ccc(F)cc4)nc(Nc4ccc(F)cc4)n3)cc2)cc(OC)c1OC | > 100 µM | 12 µM |  | > 100 µM | > 100 µM | > 100 µM | > 100 µM | > 100 µM | 7.92 µM | 2.66 µM |  | 20.5 µM | 1.93 µM | 2.35 µM | 1 µM | 35.8 µM
22 | CCOC(=O)C(=Cc1ccccc1Br)C(=O)OCC |  | > 100 µM | 7.07 µM | 8.7 µM | 62.5 µM | 5.61 µM | > 100 µM | 4 µM |  |  |  |  |  |  |  | 
23 | O=C(/C=C/c1ccccc1F)C(c1ccccc1)c1ccccc1 | 13 µM | 5.8 µM |  | 14.6 µM |  | 6.6 µM | 6.32 µM | 11.8 µM |  |  |  |  |  |  |  | 
24 | CNCCNc1nc2ccccc2c2c(=O)c3cccc(OC)c3sc12 | 2.65 µM | 3.35 µM | 3.65 µM |  | 3.27 µM | 1.63 µM | 3.2 µM | 3.64 µM | 1.24 µM | 1.76 µM | 1.7 µM | 1.64 µM | 0.427 µM | 1.43 µM | 1.8 µM | 
25 | CCCNc1nc(-c2ccc(OC)cc2)nc2ccccc12 | 37.8 µM | 33 µM |  | 26.7 µM | 43 µM | > 100 µM | 68.3 µM |  | 16.7 µM | 13.7 µM |  | 16.4 µM | 46.4 µM | 11.1 µM |  | 13.2 µM
26 | CC(=O)O[C@H]1CC[C@@]2(C)C(=CC[C@@H]3C2CC[C@]2(C)Nc4oncc4CC32)C1 (stereo not given in full) | > 100 µM | > 100 µM |  | > 100 µM | > 100 µM | 28.9 µM | 23 µM | 31.9 µM |  |  |  |  |  |  |  | 
